Results taken from patent publication US10059704B2, “1,4-disubstituted 1,2,3-triazoles, methods for preparing same, and diagnostic and therapeutic uses thereof” (CENTRE NATIONAL DE LA RECHERCHE SCIENTIFIQUE (C.N.R.S.), priority 2011, dated 2018).
Read-outs that look alike come from different tables or passages of the source.

Legend:
nicotinic receptors Rα7 = nicotinic receptors Rα7 (Rattus norvegicus, UniProt Q05941); assay: biochemical; assay type: binding
[1] = rat frontal cortex membranes, [125I]α-bungarotoxin 2 nM, 22° C., 3 hours, Ki calculated from IC50 (Cheng and Prussof), read-out: Activity on Rα7

Chain of nicotinic receptors Rα7 (Q05941 23-502): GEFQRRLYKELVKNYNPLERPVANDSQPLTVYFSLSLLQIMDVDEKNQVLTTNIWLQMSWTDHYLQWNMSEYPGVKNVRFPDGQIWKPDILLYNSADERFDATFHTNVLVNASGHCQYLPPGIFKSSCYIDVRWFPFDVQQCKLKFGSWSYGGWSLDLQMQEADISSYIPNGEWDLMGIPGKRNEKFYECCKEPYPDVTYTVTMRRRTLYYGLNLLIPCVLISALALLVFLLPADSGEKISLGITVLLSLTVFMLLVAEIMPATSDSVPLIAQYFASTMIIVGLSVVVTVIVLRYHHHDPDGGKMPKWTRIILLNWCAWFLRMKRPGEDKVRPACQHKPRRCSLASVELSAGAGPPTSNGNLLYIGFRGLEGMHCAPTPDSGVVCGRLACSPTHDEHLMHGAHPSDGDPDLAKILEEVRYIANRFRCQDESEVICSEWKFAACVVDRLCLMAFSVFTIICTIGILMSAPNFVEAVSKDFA

Row | SMILES | melting point | Ki (nicotinic receptors Rα7) [nM] | Ki (nicotinic receptors Rα7; [1]) [nM]
1 | O=Cc1ccc(-c2cccc(-c3cn([C@H]4CN5CCC4CC5)nn3)c2)s1 [Compound 101, (R)-5-[3-[1-[quinuclidin-3-yl]-1H-1,2,3-triazol-4-yl]phenyl]thiophene-2-carbaldehyde] | 150 °C | 7 | 
2 | OC1(c2cn(-c3ccc(Br)cc3)nn2)CN2CCC1CC2 (stereo not drawn) | 214 °C |  | 
3 | Fc1ccc(-c2coc(-c3cn([C@H]4CN5CCC4CC5)nn3)c2)cn1 [Compound 91, (R)-3-[4-[4-(6-fluoro-3-pyridyl)-2-furyl]-1H-1,2,3-triazol-1-yl]quinuclidine] | 210 °C | 117 | 
4 | COc1ccc(-n2cc(C3(O)CN4CCC3CC4)nn2)cc1 (stereo not drawn) | 174 °C |  | 
5 | Brc1ccc(-c2cn([C@H]3CN4CCC3CC4)nn2)cc1 [Compound 41, (R)-3-(4-(4-Bromophenyl)-1H-1,2,3-triazol-1-yl)quinuclidine] | 158 °C | 6 ± 3 | 
6 | Fc1ccc(-c2cn([C@@H]3CN4CCC3CC4)nn2)cc1 [Compound 57, (S)-3-(4-(4-Fluorophenyl)-1H-1,2,3-triazol-1-yl)quinuclidine] | 139 °C |  | 114 ± 38
7 | c1coc(-c2ccc(-c3cn([C@H]4CN5CCC4CC5)nn3)s2)c1 [Compound 62, (R)-3-(4-(5-(Furan-2-yl)thiophen-2-yl)-1H-1,2,3-triazol-1-yl)quinuclidine] | 180 °C |  | 10 ± 1
8 | OCc1ccc(-c2ccc(-c3cn([C@H]4CN5CCC4CC5)nn3)o2)cc1 [Compound 84, (R)-[4-[5-[1-[quinuclidin-3-yl]-1H-1,2,3-triazol-4-yl]-2-furyl]-phenyl]-methanol] | 209 °C | 6 | 
9 | OCc1ccc(-c2cccc(-c3cn([C@H]4CN5CCC4CC5)nn3)c2)cc1 [Compound 98, (R)-[4-[3-[1-[quinuclidin-3-yl]-1H-1,2,3-triazol-4-yl]phenyl]phenyl]methanol] | 214 °C | 105 | 
10 | OCc1ccc(-c2csc(-c3cn([C@H]4CN5CCC4CC5)nn3)c2)cc1 [Compound 86, (R)-[4-[5-[1-[quinuclidin-3-yl]-1H-1,2,3-triazol-4-yl]-3-thienyl]phenyl]methanol] | 196 °C |  | 
11 | Brc1ccc(-c2cn([C@H]3CN4CCC3CC4)nn2)s1 [Compound 54, (R)-3-(4-(5-Bromothiophen-2-yl)-1H-1,2,3-triazol-1-yl) quinuclidine] | 146 °C | 13 ± 4 | 
12 | Fc1ccc(-c2cn([C@H]3CN4CCC3CC4)nn2)cn1 [Compound 51, (R)-3-(4-(6-fluoropyridin-3-yl)-1H-1,2,3-triazol-1-yl) quinuclidine] | 147 °C |  | 469 ± 6
13 | OCc1ccc(-c2cccc(-c3cn([C@H]4CN5CCC4CC5)nn3)c2)s1 [Compound 115, (R)-[5-[3-[1-[quinuclidin-3-yl]-1H-1,2,3-triazol-4-yl]phenyl]-2-thienyl]-methanol] | 176 °C | 0.5 | 
14 | Clc1ccc(-c2cn([C@H]3CN4CCC3CC4)nn2)cc1Cl [Compound 40, (R)-3-(4-(3,4-Dichlorophenyl)-1H-1,2,3-triazol-1-yl)quinuclidine] | 108 °C |  | 19 ± 6
15 | Fc1ccc(-c2cn([C@H]3CN4CCC3CC4)nn2)cc1 [Compound 42, (R)-3-(4-(4-Fluorophenyl)-1H-1,2,3-triazol-1-yl)quinuclidine] | 180 °C |  | 
16 | c1csc(-c2ccc(-c3cn([C@H]4CN5CCC4CC5)nn3)s2)c1 [Compound 61, (R)-3-(4-(2,7-Bithiophen-5-yl)-1H-1,2,3-triazol-1-yl)quinuclidine] | 182 °C |  | 20 ± 2
17 | Clc1ccc(-c2cccc(-c3cn([C@H]4CN5CCC4CC5)nn3)c2)cn1 | 80 °C (dec.) |  | 
18 | CN1CCN(Cc2cccc(-c3ccc(-c4cn([C@H]5CN6CCC5CC6)nn4)s3)c2)CC1 | 155 °C |  | 
19 | COc1ccccc1-c1cn([C@H]2CN3CCC2CC3)nn1 [Compound 48, (R)-3-(4-(2-Methoxyphenyl)-1H-1,2,3-triazol-1-yl)quinuclidine] | 120 °C |  | 
20 | OCc1ccc(-c2ccc(-c3cn([C@H]4CN5CCC4CC5)nn3)cc2)s1 [Compound 114, (R)-[5-[4-[1-[quinuclidin-3-yl]-1H-1,2,3-triazol-4-yl]phenyl]-2-thienyl]methanol] | 234 °C | 160 | 
21 | c1ccc(-c2cn([C@H]3CN4CCC3CC4)nn2)cc1 [Compound 37, (R)-3-(4-Phenyl-1H-1,2,3-triazol-1-yl)quinuclidine] | 132 °C |  | 8 ± 4
22 | Fc1ccccc1-c1cn([C@H]2CN3CCC2CC3)nn1 [Compound 44, (R)-3-(4-(2-Fluorophenyl)-1H-1,2,3-triazol-1-yl)quinuclidine] | 94 °C |  | 13 ± 3
23 | c1ccc(-c2ccc(-c3cn([C@H]4CN5CCC4CC5)nn3)s2)cc1 | 184 °C |  | 
24 | Cl.ClCc1ccc(-c2cn([C@H]3CN4CCC3CC4)nn2)cc1 | 240 °C |  | 
25 | c1cc(-c2ccc(-c3cn([C@H]4CN5CCC4CC5)nn3)s2)ccc1CN1CCCCC1 [Compound 103, (R)-3-[4-[5-[4-(1-piperidylmethyl)phenyl]-2-thienyl]-1H-1,2,3-triazol-1-yl]quinuclidine] | 230 °C |  | 0.3
26 | OCc1cccc(-c2csc(-c3cn([C@H]4CN5CCC4CC5)nn3)c2)c1 [Compound 89, (R)-[3-[5-[1-[quinuclidin-3-yl]-1H-1,2,3-triazol-4-yl]-3-thienyl]phenyl]methanol] | 211 °C |  | 13

Row | SMILES | melting point | Ki (nicotinic receptors Rα7) [nM] | Ki (nicotinic receptors Rα7; [1]) [nM]
27 | Fc1ccc(-c2ccc(-c3cn([C@H]4CN5CCC4CC5)nn3)cc2)cn1 | 181 °C |  | 
28 | c1cc2cc(-c3cn([C@H]4CN5CCC4CC5)nn3)ccc2o1 [Compound 56, (R)-3-(4-(Benzofuran-5-yl)-1H-1,2,3-triazol-1-yl)quinuclidine] | 178 °C |  | 3 ± 1
29 | O=Cc1ccc(-c2ccc(-c3cn([C@H]4CN5CCC4CC5)nn3)cc2)s1 [Compound 97, (R)-5-[4-[1-[quinuclidin-3-yl]-1H-1,2,3-triazol-4-yl]phenyl]thiophene-2-carbaldehyde] | 228 °C | 90 to 120 | 
30 | OCc1ccc(-c2ccc(-c3cn([C@H]4CN5CCC4CC5)nn3)s2)cc1 [Compound 63, (R)-(4-(5-(1-(quinuclidin-3-yl)-1H-1,2,3-triazol-4-yl)thiophen-2-yl)phenyl)methanol] | 253 °C |  | 0.6 ± 0.2
31 | Cl.ClCc1ccc(-c2ccc(-c3cn([C@H]4CN5CCC4CC5)nn3)s2)cc1 | 255 °C |  | 
32 | Fc1ccc(-c2ccc(-c3cn([C@H]4CN5CCC4CC5)nn3)s2)cn1 [Compound 87, (R)-3-[4-[5-(6-fluoro-3-pyridyl)-2-thienyl]-1H,1,2,3-triazol-1-yl]quinuclidine] | 163 °C |  | 
33 | Nc1c(-c2ccccc2)nnn1[C@H]1CN2CCC1CC2 [Compound 60, (R)-4-Phenyl-1-(quinuclidin-3-yl)-1H-1,2,3-triazol-5-amine] | 120 °C | 11 ± 4 | 
34 | OCc1cccc(-c2ccc(-c3cn([C@H]4CN5CCC4CC5)nn3)s2)c1 [Compound 85, (R)-[3-[5-[1-[quinuclidin-3-yl]-1H2,3-triazol-4-yl]-2-thienyl]phenyl]methanol] | 181 °C |  | 
35 | Fc1ccc(-c2cccc(-c3cn([C@H]4CN5CCC4CC5)nn3)c2)cn1 [Compound 100, (R)-3-[4-[3-(6-fluoro-3-pyridyl)phenyl]-1H-1,2,3-triazol-1-yl]quinuclidine] | 164 °C |  | 16
36 | FCc1ccc(-c2ccc(-c3cn([C@H]4CN5CCC4CC5)nn3)s2)cc1 [Compound 112, (R)-3-[4-[5-[4-(fluoromethyl)phenyl]-2-thienyl]-1H-1,2,3-triazol-1-yl]quinuclidine] | 199 °C |  | 5
37 | Fc1ccc(-c2cn(C3CCCN4CCCCC34)nn2)cc1 (stereo not drawn) | 142 °C |  | 
38 | c1csc(-c2ccc(-c3cn([C@H]4CN5CCC4CC5)nn3)cc2)c1 [Compound 96, (R)-3-[4-[4-(2-thienyl)phenyl]-1H-1,2,3-triazol-1-yl]quinuclidine] | 214 °C | 135 | 
39 | O=[N+]([O-])c1ccc(-c2ccc(-c3cn([C@H]4CN5CCC4CC5)nn3)s2)cn1 | 160 °C |  | 
40 | Brc1ccc(-c2cn([C@H]3CN4CCC3CC4)nn2)o1 | 144 °C |  | 
41 | c1ccc(-c2cn(C3CCCN4CCCCC34)nn2)cc1 (stereo not drawn) | 150 °C |  | 
42 | Brc1coc(-c2cn([C@H]3CN4CCC3CC4)nn2)c1 | 129 °C |  | 
43 | COc1cccc(-c2cn([C@H]3CN4CCC3CC4)nn2)c1 [Compound 47, (R)-3-(4-(3-Methoxyphenyl)-1H-1,2,3-triazol-1-yl)quinuclidine] |  |  | 2.3 ± 1
44 | FCc1cccc(-c2ccc(-c3cn([C@H]4CN5CCC4CC5)nn3)s2)c1 | 144 °C |  | 
45 | Brc1csc(-c2cn([C@H]3CN4CCC3CC4)nn2)c1 | 106 °C |  | 
46 | OCc1ccc(-c2cn([C@H]3CN4CCC3CC4)nn2)cc1 [Compound 38, (R)-(4-(1-(Quinuclidin-3-yl)-1H-1,2,3-triazol-4-yl)phenyl)methanol] | 200 °C |  | 
47 | Fc1ccc(-c2csc(-c3cn([C@H]4CN5CCC4CC5)nn3)c2)cn1 [Compound 88, (R)-3-[4-[4-(6-fluoro-3-pyridyl)-2-thienyl]-1H-1,2,3-triazol-1-yl]quinuclidine] | 136 °C |  | 
48 | c1cc(-c2cn([C@H]3CN4CCC3CC4)nn2)ccn1 [Compound 50, (R)-3-(4-(Pyridin-4-yl)-1H-1,2,3-triazole-1-yl)quinuclidine] | 150 °C |  | 
49 | FCc1ccc(-c2cn([C@H]3CN4CCC3CC4)nn2)cc1 [Compound 58, (R)-3-(4-(4-(Fluoromethyl)phenyl)-1H-1,2,3-triazol-1-yl)quinuclidine] | 138 °C |  | 
50 | O=[N+]([O-])c1ccc(-c2cccc(-c3cn([C@H]4CN5CCC4CC5)nn3)c2)cn1 | 180 °C |  | 
51 | COC(=O)c1ccc(-c2ccc(-c3cn([C@H]4CN5CCC4CC5)nn3)s2)cc1Cl | 200 °C |  | 
